From patent publication US4950647A, “T cell immunopotentiator” (Nucleic Acid Research Institute, priority 1988, dated 1990)
Entries after “also recorded” stand apart in the source; their conditions may differ. Like-named read-outs stand apart in the source and are kept apart here.

Key:
[1] = test system: human lymphocytes (peripheral blood mononuclear cells); assay: Mitogenic activity (3H-thymidine incorporation); type: cell-based
Procedure: (§1) Peripheral blood mononuclear cells were isolated from heparinized peripheral blood of normal healthy donors as described in Sharma, B. and S. Gupta, "Antigen-specific primary cytotoxic T lymphocyte response in acquired immune deficiency syndrome (AIDS) and AIDS related complex", Clin. Exp. Immunol., 62:296, 1985. Briefly, blood was diluted 1:1 with Hanks balanced salt solution (HBSS). Peripheral blood mononuclear cells were separated on a Ficoll-Hypaque gradient. The peripheral blood mononuclear cells recovered from the interface were washed three times with HBSS and resuspended in RPMI-1640 containing 100 U/ml penicillin, 100 μg/ml streptomycin 2mM L-glutamine (GIBCO, Grand Island, N.Y.), and 10% heat-inactivated pooled A serum (Irvine Scientific, Irvine, Calif.), hereafter referred as complete medium (CM).
The ability of 6-amino-(2-deoxy-α-D-erythro-pentofuranosyl)-imidazo[4,5,-C]pyridin- 4-one to activate lymphocytes was determined by culturing the cells with and without this compound. Peripheral blood mononuclear cells (1×10^5 /0.2 ml) were cultures in 96 well microtiter plates (Corning, N.Y.) for 72-96 hrs at 37° C. in 5% CO2 humid atmosphere and then for an additional 16 hr in the presence of 1 μCi/well [^3 H] thymidine (ICN Pharmaceuticals, Inc., Irvine, Calif.). Cells were harvested on glass fiber filter paper using a cell harvester (Skatron, Lier, Norway). The radioactivity was measured in a scintillation counter after suspending the dried filter in scintillation fluid.
To determine whether 6-amino-(2-deoxy-α-D-erythro-pentofuranosyl)-imidazo[4,5,-C]pyridin- 4-one directly activates lymphocytes to proliferate, peripheral blood mononuclear cells were cultured with or without this compound as described in the above methods section.

[2] = test system: B cells (human peripheral blood mononuclear cells); assay: Staphylococcus aureus cowan (SAC) induced B cell proliferation; type: cell-based; design: 3H-thymidine incorporation: unit not given here
Procedure: as §1
Peripheral blood mononuclear cells (1×10^5 /0.2 ml/well) were incubated with different concentrations of Staphylococcus aureus cowan (1:[…] and 1:10,000 dilutions) in the presence and absence of 6-amino-(2-deoxy-α-D-erythro-pentofuranosyl)-imidazo[4,5,-C]pyridin- 4-one for 4 days. The cultures were pulsed with [^3 H]-thymidine and then the incorporation of [^3 H]thymidine was measured.
To further evaluate the effect on B cell response, human peripheral blood mononuclear cells were cultured with Staphylococcus aureus cowan in the presence and absence of 6-amino-(2-deoxy-α-D-erythro-pentofuranosyl)-imidazo[4,5,-C]pyridin- 4-one.

[3] = test system: lymphocytes (peripheral blood mononuclear cells); assay: Pokeweed mitogen (PWM) induced lymphocyte proliferation; type: cell-based, human; design: 3H-thymidine incorporation: unit not given here
Procedure: as §1, with “(CM). […] T. Terasaki, "Effect of water soluble adjuvants on in vitro lymphocyte immunization", Cancer Res. 35:666, 1975. […] The culture were set up in quadruplicate and pulsed with [^3 H]-thymidine for 16 hr and the [^3 H] thymidine incorporation was determined.” for “(CM).”

[4] = listed as 6-Amino-(2-deoxy-α-D-erythro-pentofuranosyl)-imidazo[4,5,-C]pyridin-4-one

With Nc1cc2c(ncn2[C@@H]2C[C@H](O)[C@@H](CO)O2)c(O)n1 [Test Compound, 6-amino-1-(2-deoxy-α-D-erythro-pentofuranosyl)imidazo[4,5-C]-pyridin-4-one] the “increase in the proliferation of peripheral blood mononuclear cells” value ([1]; 0.006 mM to 0.4 mM, several donors) was “no significant increase”, the “stimulation of lymphocytes to proliferate” value ([1]; 1 mM) was “failed to stimulate lymphocytes to proliferate” and the “direct stimulation of lymphocytes to proliferate” value ([1]; by itself) was “unable to directly stimulate lymphocytes to proliferate”. For the same compound, the 3H-thymidine incorporation ([1]; donor 1, 0.006 mM) was 212 ± 96 Counts per minute, the 3H-thymidine incorporation ([1]; donor 1, 0.025 mM) was 494 ± 267 Counts per minute and the 3H-thymidine incorporation ([1]; donor 1, 0.050 mM) was 306 ± 106 Counts per minute. The 3H-thymidine incorporation ([1]; donor 1, 0.2 mM) was 246 ± 99 Counts per minute, the 3H-thymidine incorporation ([1]; donor 1, 0.4 mM) was 320 ± 46 Counts per minute and the 3H-thymidine incorporation ([1]; donor 2, 0.006 mM) was 262 ± 68 Counts per minute. It also gave a 3H-thymidine incorporation ([1]; donor 2, 0.025 mM) of 273 ± 122 Counts per minute, a 3H-thymidine incorporation ([1]; donor 2, 0.050 mM) of 257 ± 67 Counts per minute and a 3H-thymidine incorporation ([1]; donor 3, 0.006 mM) of 266 ± 42 Counts per minute. For the same compound, the 3H-thymidine incorporation ([1]; donor 3, 0.025 mM) was 252 ± 112 Counts per minute, the 3H-thymidine incorporation ([1]; donor 3, 0.050 mM) was 180 ± 37 Counts per minute and the 3H-thymidine incorporation ([1]; donor 4, 0.006 mM) was 246 ± 61 Counts per minute. For the same compound, the 3H-thymidine incorporation ([1]; donor 4, 0.025 mM) was 237 ± 55 Counts per minute, the 3H-thymidine incorporation ([1]; donor 4, 0.050 mM) was 240 ± 35 Counts per minute and the 3H-thymidine incorporation ([1]; donor 5, 0.006 mM) was 238 ± 63 Counts per minute. The 3H-thymidine incorporation ([1]; donor 5, 0.025 mM) was 121 ± 55 Counts per minute, the 3H-thymidine incorporation ([1]; donor 5, 0.050 mM) was 841 ± 310 Counts per minute and the 3H-thymidine incorporation ([1]; donor 5, 0.2 mM) was 277 ± 51 Counts per minute. For the same compound, the 3H-thymidine incorporation ([1]; donor 5, 0.4 mM) was 165 ± 64 Counts per minute, the 3H-thymidine incorporation ([1]; donor 6, 0.006 mM) was 486 ± 51 Counts per minute and the 3H-thymidine incorporation ([1]; donor 6, 0.025 mM) was 508 ± 140 Counts per minute. The 3H-thymidine incorporation ([1]; donor 6, 0.050 mM) was 650 ± 130 Counts per minute, the 3H-thymidine incorporation ([1]; donor 6, 0.2 mM) was 620 ± 322 Counts per minute and the 3H-thymidine incorporation ([1]; donor 6, 0.4 mM) was 395 ± 22 Counts per minute. For the same compound, the 3H-thymidine incorporation ([1]; donor 7, 0.006 mM) was 1133 ± 257 Counts per minute, the 3H-thymidine incorporation ([1]; donor 7, 0.025 mM) was 1667 ± 254 Counts per minute and the 3H-thymidine incorporation ([1]; donor 7, 0.050 mM) was 772 ± 137 Counts per minute. The 3H-thymidine incorporation ([1]; donor 7, 0.2 mM) was 657 ± 137 Counts per minute, the 3H-thymidine incorporation ([1]; donor 7, 0.4 mM) was 702 ± 189 Counts per minute and the “suppression of SAC induced B cell proliferation” value [2] was “slight suppression of B cell proliferation in some cases”. For the same compound, the 3H-thymidine incorporation ([2]; SAC 1:100, 0.0125 mM) was 31582 ± 5535, the 3H-thymidine incorporation ([2]; SAC 1:100, 0.025 mM) was 30876 ± 1757 and the 3H-thymidine incorporation ([2]; SAC 1:100, 0.05 mM) was 31036 ± 2225. The 3H-thymidine incorporation ([2]; SAC 1:100, 0.6 mM) was 31549 ± 1496, the 3H-thymidine incorporation ([2]; SAC 1:1000, 0.0125 mM) was 18079 ± 829 and the 3H-thymidine incorporation ([2]; SAC 1:1000, 0.025 mM) was 18897 ± 1334. For the same compound, the 3H-thymidine incorporation ([2]; SAC 1:1000, 0.05 mM) was 17240 ± 1634, the 3H-thymidine incorporation ([2]; SAC 1:1000, 0.2 mM) was 16618 ± 2378 and the “augmenting effect on SAC induced B cell proliferation” value [2, 4] was “neither an effect on Staphylococcus aureus cowan induced B cell proliferation; also recorded: no augmenting effect”. The “maximum increase of Pokeweed mitogen induced proliferation” value [3] was 18%, the activation at 6 µM ([3]; Homo sapiens, Lymphocyte, donor 1, control 53384, 0.006 mM, read-out: % Increase (+)) was 18% and the activation at 25 µM ([3]; Homo sapiens, Lymphocyte, donor 1, control 53384, 0.025 mM, read-out: % Increase (+)) was 8%. The activation at 6 µM ([3]; Homo sapiens, Lymphocyte, donor 1, second control 58731, 0.006 mM, read-out: % Increase (+)) was 4%, the activation at 6 µM ([3]; Homo sapiens, Lymphocyte, donor 4, 0.006 mM, read-out: % Increase (+)) was 4% and the inhibition at 50 µM ([3]; Homo sapiens, PBMC, donor 1, control 53384, 0.05 mM, read-out: % Decrease (-)) was 14%. It also gave an inhibition at 25 µM ([3]; Homo sapiens, PBMC, donor 1, second control 58731, 0.025 mM, read-out: % Decrease (-)) of 1%, an inhibition at 50 µM ([3]; Homo sapiens, PBMC, donor 1, second control 58731, 0.05 mM, read-out: % Decrease (-)) of 7% and an inhibition at 25 µM ([3]; Homo sapiens, PBMC, donor 2, 0.025 mM, read-out: % Decrease (-)) of 19%. The inhibition at 50 µM ([3]; Homo sapiens, PBMC, donor 2, 0.05 mM, read-out: % Decrease (-)) was 19%, the inhibition at 125 µM ([3]; Homo sapiens, PBMC, donor 2, 0.125 mM, read-out: % Decrease (-)) was 16% and the inhibition at 6 µM ([3]; Homo sapiens, PBMC, donor 3, 0.006 mM, read-out: % Decrease (-)) was 4%. It also gave an inhibition at 25 µM ([3]; Homo sapiens, PBMC, donor 3, 0.025 mM, read-out: % Decrease (-)) of 22%, an inhibition at 200 µM ([3]; Homo sapiens, PBMC, donor 3, 0.2 mM, read-out: % Decrease (-)) of 27% and an inhibition at 25 µM ([3]; Homo sapiens, PBMC, donor 4, 0.025 mM, read-out: % Decrease (-)) of 11%. For the same compound, the inhibition at 50 µM ([3]; Homo sapiens, PBMC, donor 4, 0.05 mM, read-out: % Decrease (-)) was 18%, the 3H-thymidine incorporation ([3]; donor 1, control 53384, 0.006 mM) was 62772 ± 2781 and the 3H-thymidine incorporation ([3]; donor 1, control 53384, 0.025 mM) was 56449 ± 2090. It also gave a 3H-thymidine incorporation ([3]; donor 1, control 53384, 0.05 mM) of 45844 ± 1152, a 3H-thymidine incorporation ([3]; donor 1, second control 58731, 0.006 mM) of 61100 ± 4701 and a 3H-thymidine incorporation ([3]; donor 1, second control 58731, 0.025 mM) of 57852 ± 3166. The 3H-thymidine incorporation ([3]; donor 1, second control 58731, 0.05 mM) was 54840 ± 942, the 3H-thymidine incorporation ([3]; donor 2, 0.025 mM) was 67565 ± 5857 and the 3H-thymidine incorporation ([3]; donor 2, 0.05 mM) was 67429 ± 3657. It also gave a 3H-thymidine incorporation ([3]; donor 2, 0.125 mM) of 70197 ± 5940, a 3H-thymidine incorporation ([3]; donor 3, 0.006 mM) of 40425 ± 1158 and a 3H-thymidine incorporation ([3]; donor 3, 0.025 mM) of 32818 ± 4806. It also gave a 3H-thymidine incorporation ([3]; donor 3, 0.2 mM) of 30453 ± 2974, a 3H-thymidine incorporation ([3]; donor 4, 0.006 mM) of 39090 ± 4853 and a 3H-thymidine incorporation ([3]; donor 4, 0.025 mM) of 33122 ± 4539. The 3H-thymidine incorporation ([3]; donor 4, 0.05 mM) was 30500 ± 2132, the “suppressive effect on Pokeweed mitogen induced proliferation” value ([3]; especially at relatively higher concentrations) was “generally a suppressive effect” and the “immunopotentiating effect on Pokeweed mitogen induced proliferation” value [3, 4] was “did not have any significant immunopotentiating effect”.
